Data from patent US12497411B2, “Muscarinic acetylcholine receptor subtype 4 antagonists in the treatment of anemia” (COLD SPRING HARBOR LABORATORY, priority 2019, dated 2025).

How the values were obtained:
[1] = target: T1, human recombinant CHRM3 receptor (Homo sapiens, UniProt P20309); assay: Radioligand binding assay, CHRM3; conditions: [3H]4-DAMP (0.2 nM), CHO cell membranes, 60 minutes at room temperature; read-out: Ki M3
T1 construct: expressed in transfected cells; host or cells: CHO cells (membranes)
T1 sequence (P20309 whole entry): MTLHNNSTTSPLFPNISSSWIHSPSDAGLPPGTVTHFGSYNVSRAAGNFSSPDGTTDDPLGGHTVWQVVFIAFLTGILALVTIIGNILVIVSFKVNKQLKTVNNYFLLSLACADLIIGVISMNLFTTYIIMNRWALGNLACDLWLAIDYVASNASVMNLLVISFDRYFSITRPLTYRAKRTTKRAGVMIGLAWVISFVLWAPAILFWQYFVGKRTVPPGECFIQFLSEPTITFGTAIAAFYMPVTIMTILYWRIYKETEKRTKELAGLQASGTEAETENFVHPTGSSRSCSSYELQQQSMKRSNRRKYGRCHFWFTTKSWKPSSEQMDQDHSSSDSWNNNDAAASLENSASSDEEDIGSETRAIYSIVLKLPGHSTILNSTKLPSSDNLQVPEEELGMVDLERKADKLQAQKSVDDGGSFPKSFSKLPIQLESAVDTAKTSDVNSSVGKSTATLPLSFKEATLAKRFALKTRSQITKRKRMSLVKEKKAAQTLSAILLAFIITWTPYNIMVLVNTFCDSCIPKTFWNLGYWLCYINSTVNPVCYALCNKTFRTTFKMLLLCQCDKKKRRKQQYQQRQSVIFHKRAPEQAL
How it was run: (§1)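 Membranes from CHO cells expressing each human recombinant receptor; radioligands [^3H]pirenzepine (2 nM) for CHRM1, [^3H]AF-DX 384 (2 nM) for CHRM2, [^3H]4-DAMP at 0.2 nM for CHRM3 and 0.3 nM for CHRM5. Compounds at 1×10^−9 to 1×10^−5 M; 60 min, room temperature. Percent inhibition of radioligand binding; Ki determined.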

[2] = test system: PHZ induced hemolytic anemia in C57bl/6 mice; assay: PHZ induced hemolytic anemia mouse model, CBC; format: in vivo; conditions: 100 mg/kg oral once per day, CBC on day 6, vs DMSO control
Protocol: Animal experiments were conducted in the Cold Spring Harbor Laboratory Animal Shared Resource in accordance with Institutional Animal Care and Use Committee-approved procedures. 4-6 weeks old C57bl/6 mice, purchased from Jackson Laboratory and randomly distributed into compound and control treatment groups, were given through oral delivery of PCS1055 (50 mg/kg or 100 mg/kg) twice per day or PD102807 (50 mg/kg or 100 mg/kg) once per day everyday for 3 days. On day 3, mice were intraperitoneally injected with 60 mg/kg PHZ. Mice were then given through oral delivery of PD102807 (50 mg/kg or 100 mg/kg) once per day every day for 2 days. Peripheral blood samples were collected retro-orbitally on day 6 using heparinized capillary tubes in blood collection tubes with K2-EDTA. CBC was performed using Hemavet 950. […] C57bl/6 mice were injected with 60 mg/kg phenylhydrazine to induce hemolysis. Mice were delivered with either vehicle control or Compound A or B (30 mg/kg or 100 mg/kg). Peripheral blood samples were collected retro-orbitally using heparinized capillary tubes into blood collection tubes with K2-EDTA. Complete blood counting was performed using Hemavet 950. Hematocrit (HCT), red blood cell (RBC) and hemoglobin (Hb) values are shown. […] C57bl/6 mice were injected with 60 mg/kg phenylhydrazine to induce hemolysis. Mice were delivered with subcutaneous injection with either vehicle control or Compound B (1.5 mg/kg, 3 mg/kg, or 5 mg/kg) or I (0.5 mg/kg, 0.7 mg/kg, or 1 mg/kg). Peripheral blood samples were collected retro-orbitally using heparinized capillary tubes into blood collection tubes with K2-EDTA. Complete blood counting was performed using Hemavet 950. Hematocrit (HCT), red blood cell (RBC) and hemoglobin (Hb) values are shown.

[3] = target: T2, CHRM4 (Homo sapiens, UniProt P08173); conditions: previous reports (Croy 2016; Böhme 2002); cited from earlier work
T2 sequence (P08173 1-479): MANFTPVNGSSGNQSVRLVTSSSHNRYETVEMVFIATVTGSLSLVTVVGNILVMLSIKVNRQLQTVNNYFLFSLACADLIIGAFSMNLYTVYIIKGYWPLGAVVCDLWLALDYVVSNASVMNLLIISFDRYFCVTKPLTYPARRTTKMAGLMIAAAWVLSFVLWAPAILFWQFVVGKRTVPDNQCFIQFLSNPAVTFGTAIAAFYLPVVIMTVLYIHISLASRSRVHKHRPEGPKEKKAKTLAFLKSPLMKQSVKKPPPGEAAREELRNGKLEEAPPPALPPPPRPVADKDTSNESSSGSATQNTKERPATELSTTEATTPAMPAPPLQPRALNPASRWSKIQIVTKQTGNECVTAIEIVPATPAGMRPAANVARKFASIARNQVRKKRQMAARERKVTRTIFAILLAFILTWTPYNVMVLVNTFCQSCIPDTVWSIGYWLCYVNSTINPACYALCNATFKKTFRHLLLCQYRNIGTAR

[4] = target: T3, human recombinant CHRM2 receptor (Homo sapiens, UniProt P08172); assay: Radioligand binding assay, CHRM2; conditions: [3H]AF-DX 384 (2 nM), CHO cell membranes, 60 minutes at room temperature; read-out: Ki M2
T3 construct: expressed in transfected cells; host or cells: CHO cells (membranes)
T3 sequence (P08172 1-466): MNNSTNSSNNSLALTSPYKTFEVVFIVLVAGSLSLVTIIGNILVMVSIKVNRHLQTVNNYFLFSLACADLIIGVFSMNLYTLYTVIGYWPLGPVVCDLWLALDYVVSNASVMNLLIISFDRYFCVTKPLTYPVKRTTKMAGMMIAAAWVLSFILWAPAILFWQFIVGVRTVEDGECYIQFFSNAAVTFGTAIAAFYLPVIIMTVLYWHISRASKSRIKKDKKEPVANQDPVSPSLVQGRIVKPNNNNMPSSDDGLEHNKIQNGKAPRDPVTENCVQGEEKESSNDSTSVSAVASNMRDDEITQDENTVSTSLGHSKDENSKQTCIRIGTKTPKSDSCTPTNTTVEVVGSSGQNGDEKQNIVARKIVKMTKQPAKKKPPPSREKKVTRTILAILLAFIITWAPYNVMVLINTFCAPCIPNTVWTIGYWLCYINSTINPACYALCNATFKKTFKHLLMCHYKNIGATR
How it was run: as §1

[5] = test system: Mouse BFU-Es; assay: Primary mouse BFU-E culture assay (cell expansion); format: cell-based
Protocol: Primary mouse BFU-Es were isolated from mouse embryonic day 14.5 (E14.5) fetal liver and cultured in StemSpan serum-free expansion medium, and the numbers of cells formed were counted during culture. BFU-Es were infected with either viruses encoding control shRNA or viruses encoding shRNAs targeting Chrm4, and numbers of GFP+ cells formed during culture were counted. DMSO or 25 mg/kg oxyphenonium bromide was intraperitoneally injected into the hemolysis mouse model, Mx1-cre Srsf2 P95H/WT MDS mouse model, and aging mouse model. Complete blood count (CBC) was performed after compound injection. CREB ChIP-Seq was performed on BFU-Es after culture with 100 μM oxyphenonium bromide for 45 minutes. RNA-Seq was performed in BFU-Es after being cultured with DMSO or oxyphenonium bromide for 3 days.
BFU-Es were isolated from mouse embryonic day 14.5 fetal liver using fluorescence-activated cell sorting (FACS) method previously described (Flygare et al., Blood 117, 3435-3444 (2011)). BFU-Es were cultured in StemSpan SFEM II medium containing rmSCF (100 ng/ml), EPO (2 U/ml), rmIGF-1 (40 ng/ml), dexamethasone (1 nmol/ml or 10 nmol/ml), oxyphenonium bromide ([…]), and orphenadrine citrate (1 μmol/ml).
BFU-Es were isolated from mouse embryonic day 14.5 fetal liver using fluorescence-activated cell sorting (FACS) method. BFU-Es were cultured in StemSpan SFEM II medium containing rmSCF (100 ng/ml), EPO (2 U/ml), rmIGF-1 (40 ng/ml), dexamethasone (1 nM), together with either DMSO, PCS1055 (5 nM), or PD102807 (3 nM). Numbers of cell formed were counted during in vitro culture.
FIGS. 7 and 8 show the results of the primary BFU-E culture assay. […] Highly purified BFU-Es were isolated as lin-Ter-119-CD16/CD32-Sca-1-CD41-c-Kit+CD71/Cd24a^10% low population using the fluorescence-activated cell sorting (FACS) method. BFU-Es were cultured in medium containing rmSCF, EPO, and rmIGF-1, in the presence of PD102807 or Compounds A-K at indicated concentrations.

[6] = target: T2, CHRM4; assay: Radioligand binding assay, CHRM4; design: expressed in transfected cells; host or cells: CHO cells (membranes); conditions: [3H]4-DAMP (0.2 nM), CHO cell membranes, 60 minutes at room temperature; read-out: Ki M4

Compound: CCOC(=O)c1c(C)[nH]c2ccc3c(c12)CN1CCc2cc(OC)ccc2C1O3 (centres unmarked) [PD102807, reference compound]
- Ki [1]: 210 nM
- HCT, PHZ-induced anemia [2]: significantly improved
- RBC, PHZ-induced anemia [2]: significantly improved
- selectivity for CHRM4 over other muscarinic acetylcholine receptor family members [3]: selectively inhibits CHRM4
- Ki [4]: 2500 nM
- expansion of BFU-E cells in cell culture ([5]; 3 nM PD102807): increase the expansion of BFU-E cells
- BFU-E expansion, cell numbers at day 9 ([5]; indicated concentrations, vs untreated): induce BFU-E expansion
- Ki [6]: 5.1 nM
